How the values were obtained:
human Factor XIa = target: T1, human Factor XIa (Homo sapiens, UniProt P03951); assay: Factor XIa enzyme inhibition assay (IC50, purified enzyme); type: biochemical; settings: purified enzyme 0.25 nM, substrate 50 μM; read-out: Potency hFXIa IC50
T1 construct: Enzyme: Factor XIa; 0.25 μM in 50% glycerol (20 μg/mL)
Method: (§1) • Assay buffer: 20 mM Hepes, pH 7.4; 150 mM NaCl; 0.02% Tween 20 • Compounds: 10 mM stocks in DMSO • Substrate: 20 mM Glp-Pro-Arg-AMC, 25 mg/2.3 mL H2O (store at +4° C.) [Factor XIa, thrombin, and trypsin] • 20 mM Pro-Phe-Arg-AMC (Bachem I-1295), 25 mg/2.2 mL H2O (store at +4° C.) [Factor Xa] • Enzyme: Factor XIa; 0.25 μM in 50% glycerol (20 μg/mL) • Trypsin; 0.2 μM in 50% glycerol (4.8 μg/mL) • Thrombin; 0.2 μM in 50% glycerol (7.34 μg/mL) • Factor Xa; 0.2 μM in 50% glycerol (9.2 μg/mL) • These stocks are aliquoted ([…]) and stored at −20° C. Methods: • 1. Dilute the substrate to 100 μM in assay buffer (30 μL/6 mL). The enzyme is diluted to 0.5 nM just prior to use (12 μL/6 mL for Factor XIa; 15 μL/6 mL for all of the rest.) • 2. Pipette 50 μL of substrate into each well of the 96 well (12×8) microtiter plate. (Column 1 is used as the 100% activity control and receives no compound, and Column 12 is the blank and receives no enzyme.) Add an additional 46 μL to column 2. • 3. Pipette 4 μL of each compound into the appropriate well in column 2 of the plate (unknowns assayed in triplicate, standard assayed in duplicate). The final compound concentration will be 1/50th of the stock. • 4. Serially two-fold dilute the compound by mixing the sample in column 2, removing 50 μL to the next well (column 3), mix and remove to column 4, etc. until column 11. After mixing column 11, remove 50 μL and discard. • 5. Pipette 50 μL of buffer into column 12. Initiate the reaction by adding 50 μL of enzyme solution to each well of columns 1-11 as rapidly as possible. • 6. Read the plate in a spectrophotometer (SpectraMax) at 30° C., wherein each well is measured every 60 s for 30 min. For Factor Xa assays, each well is measured every 1 min for a total of 60 min. • 7. For Factor XIa assays, the compounds are assayed, in duplicate, at 3 different starting concentrations, 20, 2, and 0.2 μM; 1:10, 1:100, and 1:1000 dil'n of 10 mM stock. All data sets are combined for graphing and data fitting. • 8. Data can be used both for estimation of IC50 and for estimation of Kon.
Potential inhibitors of Factor XIa were evaluated using the following assay.
S-2366, pyroGlu-Pro-Arg-7-methylaminocourin (AMC), available from CPC Scientific, Inc., is based on the substrate pyro-Glu-Pro-Arg-pNA, available from Diapharma Group, Inc. (Columbus, Ohio), where the p-nitroanaline group is replaced with 7-methylaminocoumarin (AMC).
The final concentration of the substrate in the assay was 50 μM, and the final concentration of the enzyme was 0.25 nM. Inhibitors were tested by serial dilution over an appropriate range to yield a dose response curve for determination of the inhibitors' IC50 value. The assay mixture was read every minute for 30 minutes in order to generate progress curves. The plates were read in a Spectramax m5 Multimode Plate Reader (Molecular Devices LLC, Sunnyvale, Calif.). Dose response curves were fit to Equation 1 below in which A is the maximum inhibition, B is the minimum inhibition, C is the IC50, and D is the Hill coefficient. [(A−B)/(1+(X/C)^D)]+B (Equation 1)

Factor Xa = target: T2, Factor Xa (Homo sapiens, UniProt P00742); assay: Dose response assay for protease inhibitors: Factor Xa (FXIa fold selectivity); type: biochemical; settings: fold selectivity for FXIa over Factor Xa
T2 construct: Factor Xa; 0.2 μM in 50% glycerol (9.2 μg/mL)
T2 sequence (P00742 235-488 limits assumed): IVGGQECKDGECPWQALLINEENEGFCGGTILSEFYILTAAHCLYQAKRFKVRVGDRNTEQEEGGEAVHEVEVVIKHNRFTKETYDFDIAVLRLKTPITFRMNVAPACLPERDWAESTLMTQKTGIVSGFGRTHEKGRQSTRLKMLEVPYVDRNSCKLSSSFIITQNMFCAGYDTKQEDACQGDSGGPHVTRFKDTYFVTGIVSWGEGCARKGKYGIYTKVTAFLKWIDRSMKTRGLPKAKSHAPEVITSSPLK
T2 sequence (P00742 41-179 partner limits assumed): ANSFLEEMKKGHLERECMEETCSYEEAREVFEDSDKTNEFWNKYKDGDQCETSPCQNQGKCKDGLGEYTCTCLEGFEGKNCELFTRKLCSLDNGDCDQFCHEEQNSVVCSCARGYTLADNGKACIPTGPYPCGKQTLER
Method: as §1

Trypsin = assay: Dose response assay for protease inhibitors: trypsin (FXIa fold selectivity); type: biochemical; settings: fold selectivity for FXIa over trypsin
Method: as §1

Thrombin = target: T3, Thrombin (Homo sapiens, UniProt P00734); assay: Dose response assay for protease inhibitors: thrombin (FXIa fold selectivity); type: biochemical; settings: fold selectivity for FXIa over thrombin
T3 construct: Thrombin; 0.2 μM in 50% glycerol (7.34 μg/mL)
Method: as §1

[1] = β-Lactam stability in rat plasma; type: in vitro ADME; settings: normal rat plasma, room temperature; read-out: Rat Plasma Stability (T1/2; min)
Method: Normal rat plasma, stored at −80° C.
• 1. Place 6 μL of each compound into 0.5 mL microcentrifuge tubes or 96-well U-bottom, polypropylene microtiter plate • 2. Place 40 μL of acetonitrile (AcN) into 0.5 mL microcentrifuge tubes labeled 1-9 • 3. Add 114 μL of plasma to each compound • 4. Sample 10 μL of compound/plasma into AcN at 2, 10, 20, 30, 60, 90, 120, 240, and 480 min of incubation at room temperature • 5. Mix each time point after adding sample and place on ice. • 6. Centrifuge time points (12,000 rpm, 3 min), remove 15 μL of the supernatant and mix with 15 μL 0.1% TFA in a V-bottom microtiter plate. • 7. Place microtiter plate in autosampler of HPLC and analyze on Restek Pinnacle C18 column (2.1×100 mm). • 8. Generate extracted ion chromatogram for parent compound and parent compound+18 (H2O). Integrate extracted ion chromatograms (EIC) and plot % total peak area for parent and adduct versus time. Fit to a model of single phase exponential decay [Y=A0*exp(−k*x)+C]. T½ is equal to ln(2)/k.

T1 sequence (P03951 388-625 limits assumed): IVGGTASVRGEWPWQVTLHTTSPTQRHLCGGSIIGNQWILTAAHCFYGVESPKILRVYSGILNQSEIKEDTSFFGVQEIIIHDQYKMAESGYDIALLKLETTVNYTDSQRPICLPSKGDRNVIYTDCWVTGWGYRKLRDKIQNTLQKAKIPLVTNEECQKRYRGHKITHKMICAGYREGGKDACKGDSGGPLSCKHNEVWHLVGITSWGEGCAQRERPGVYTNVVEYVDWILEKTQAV
T1 sequence (P03951 19-387 partner limits assumed): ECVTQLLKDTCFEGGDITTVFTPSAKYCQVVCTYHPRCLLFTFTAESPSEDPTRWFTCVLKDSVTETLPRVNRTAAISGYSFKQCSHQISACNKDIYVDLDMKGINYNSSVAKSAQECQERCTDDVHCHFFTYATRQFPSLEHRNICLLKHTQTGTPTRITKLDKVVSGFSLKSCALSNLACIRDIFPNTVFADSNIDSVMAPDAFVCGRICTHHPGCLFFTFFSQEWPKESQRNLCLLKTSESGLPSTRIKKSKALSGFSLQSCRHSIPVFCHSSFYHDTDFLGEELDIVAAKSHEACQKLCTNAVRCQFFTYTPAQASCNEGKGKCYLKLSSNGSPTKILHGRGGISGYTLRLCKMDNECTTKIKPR

Row | SMILES | IC50 (human Factor XIa) [nM] | FXIa Fold Selectivity FXa (Factor Xa) | FXIa Fold Selectivity Thrombin (Thrombin) | half-life [1] [h] | FXIa Fold Selectivity Trypsin (Trypsin)
1 | NC(=O)[C@@H]1[C@@H](Cc2ccnc(N)c2)C(=O)N1C(=O)NC(c1ccccc1)c1ccccc1 [Example 22] | < 10 | I (“I” indicates >1000) | H (“H” indicates 500-1000) | > 1.67 | I (“I” indicates >1000)
2 | C[C@@H](NC(=O)N1C(=O)[C@H](Cc2cnc(N)s2)[C@H]1C(=O)O)c1ccccc1 [Example 24] | > 1000 |  | G (“G” indicates 1-500) |  | G (“G” indicates 1-500)
3 | C[C@@H](NC(=O)N1C(=O)[C@H](Cc2ccnc(N)c2)[C@H]1C(N)=O)c1ccccc1 [Example 26] | < 10 | H (“H” indicates 500-1000) | I (“I” indicates >1000) | < 1.67 | I (“I” indicates >1000)
4 | Nc1cc(C[C@H]2C(=O)N(C(=O)NC(c3ccccc3)c3ccccc3)[C@@H]2Oc2ccccc2)ccn1 [Example 27] | 10 to 100 | H (“H” indicates 500-1000) | G (“G” indicates 1-500) | < 1.67 | G (“G” indicates 1-500)
5 | COc1cccc([C@@H](C)NC(=O)N2C(=O)[C@H](Cc3ccnc(N)c3)[C@H]2C(=O)O)c1 [Example 29] | < 10 | I (“I” indicates >1000) | I (“I” indicates >1000) | > 1.67 | G (“G” indicates 1-500)
6 | CC(C)[C@@H](C)NC(=O)N1C(=O)[C@H](Cc2ccnc(N)c2)[C@H]1C(=O)O [Example 32] | 10 to 100 | G (“G” indicates 1-500) | G (“G” indicates 1-500) | > 1.67 | G (“G” indicates 1-500)
7 | CCO[C@@H]1[C@@H](Cc2ccnc(N)c2)C(=O)N1C(=O)NC(c1ccccc1)c1ccccc1 [Example 33] | > 1000 | F (“F” indicates <1) | G (“G” indicates 1-500) | > 1.67 | G (“G” indicates 1-500)
8 | C[C@@H](NC(=O)N1C(=O)[C@H](Cc2ccnc(N)c2)[C@H]1S(C)(=O)=O)c1ccccc1 [Example 39] | 100 to 1000 | G (“G” indicates 1-500) | G (“G” indicates 1-500) | < 1.67 | G (“G” indicates 1-500)
9 | C[C@@H](NC(=O)N1C(=O)[C@H](Cc2ccnc(N)c2)[C@H]1C(=O)O)c1cccnc1 [Example 54] | 10 to 100 | H (“H” indicates 500-1000) | I (“I” indicates >1000) |  | G (“G” indicates 1-500)
10 | CC(=O)OCOC(=O)[C@@H]1[C@@H](Cc2ccnc(NC(=O)OCOC(=O)C(C)C)c2)C(=O)N1C(=O)N[C@H](C)c1ccc2c(c1)OC(F)(F)O2 [Example 180] | 10 to 100 |  |  | < 1.67 | 

Continued, in another order:

Row | IC50 (human Factor XIa) [nM] | FXIa Fold Selectivity FXa (Factor Xa) | FXIa Fold Selectivity Thrombin (Thrombin) | half-life [1] [h] | SMILES | FXIa Fold Selectivity Trypsin (Trypsin)
11 | < 10 | G (“G” indicates 1-500) | G (“G” indicates 1-500) |  | C[C@@H](NC(=O)N1C(=O)[C@H](Cc2ccnc(N)c2)[C@H]1C(=O)OCc1ccccc1)c1ccccc1 [Example 1] | G (“G” indicates 1-500)
12 | > 1000 |  | G (“G” indicates 1-500) | > 1.67 | COC(=O)[C@@H]1[C@@H](Cc2ccc(Cl)s2)C(=O)N1C(=O)N[C@H](C)c1ccccc1 [Example 2] | G (“G” indicates 1-500)
13 | 100 to 1000 | G (“G” indicates 1-500) | G (“G” indicates 1-500) |  | Nc1ncc(C[C@H]2C(=O)N(C(=O)NC(c3ccccc3)c3ccccc3)[C@@H]2C(=O)O)s1 [Example 23] | G (“G” indicates 1-500)
14 | 100 to 1000 | G (“G” indicates 1-500) | G (“G” indicates 1-500) |  | Nc1cc(CC[C@H]2C(=O)N(C(=O)NC(c3ccccc3)c3ccccc3)[C@@H]2C(=O)O)ccn1 [Example 25] | G (“G” indicates 1-500)
15 | 10 to 100 | I (“I” indicates >1000) | I (“I” indicates >1000) | < 1.67 | N#C[C@@H]1[C@@H](Cc2ccnc(N)c2)C(=O)N1C(=O)NC(c1ccccc1)c1ccccc1 [Example 28] | G (“G” indicates 1-500)
16 | 100 to 1000 | G (“G” indicates 1-500) | G (“G” indicates 1-500) | > 1.67 | Nc1cc(C[C@H]2C(=O)N(C(=O)NCC(c3ccccc3)c3ccccc3)[C@@H]2C(=O)O)ccn1 [Example 31] | G (“G” indicates 1-500)
17 | < 10 | I (“I” indicates >1000) | I (“I” indicates >1000) | < 1.67 | C[C@@H](NC(=O)N1C(=O)[C@H](Cc2ccnc(N)c2)[C@H]1C#N)c1ccccc1 [Example 34] | G (“G” indicates 1-500)
18 | 100 to 1000 | G (“G” indicates 1-500) | G (“G” indicates 1-500) | < 1.67 | CS(=O)(=O)[C@@H]1[C@@H](Cc2ccnc(N)c2)C(=O)N1C(=O)NC(c1ccccc1)c1ccccc1 [Example 35] | G (“G” indicates 1-500)
19 | < 10 | I (“I” indicates >1000) | I (“I” indicates >1000) |  | CC[C@@H](NC(=O)N1C(=O)[C@H](Cc2ccnc(N)c2)[C@H]1C(=O)O)c1ccccc1 [Example 36] | G (“G” indicates 1-500)
20 | < 10 | H (“H” indicates 500-1000) | I (“I” indicates >1000) |  | C[C@@H](NC(=O)N1C(=O)[C@H](Cc2ccnc(N)c2)[C@H]1C(=O)O)c1ccc(F)cc1 [Example 37] | I (“I” indicates >1000)
21 | 10 to 100 | I (“I” indicates >1000) | G (“G” indicates 1-500) |  | CCOC(=O)[C@@H]1[C@@H](Cc2ccnc(N)c2)C(=O)N1C(=O)NC(c1ccccc1)c1ccccc1 [Example 46] | G (“G” indicates 1-500)

Source: patent publication US11198673B2, “Therapeutic compounds and compositions” (eXIthera Pharmaceuticals, Inc., priority 2014, dated 2021)
